The source of these data is patent US20240238787A1, “PLATE ASSAY DEVICE AND METHOD FOR IN SITU IMAGING” (Duke University, priority 2023, published 2024).

The subject of assay [1] is P. aeruginosa PA14 biofilm streamers. Briefly: in situ confocal laser scanning microscopy of biofilm and biofilm streamers on ziggurat peg after antibiotic challenge. In kind it is cell-based, Pseudomonas aeruginosa PA14. The settings on record: 10 μg/mL. From the text:
The intent of this peg 110 is to optimize for in situ confocal imaging. Two imaging techniques were applied to evaluate this. With respect to FIG. 8B, the surface 128i of the distal-most portion 128i of the peg 110 was captured using a tile and z-stack approach. The biomass formed on the edges of the peg 110 and, in the “no antibiotic” samples, could be thick enough to scatter the fluorescent light emission. FIG. 8B illustrates selected 3D tiles of the surface of the surface 128i of the peg 110 with an area of 8.042 mm2. This is known to leave imaging artifacts resembling “holes” in the images observed in FIG. 8B (e.g., “No antibiotic”). Streamers, are often formed in this area. […] With respect to FIGS. 8A and 8C, the surface biomass on the second end 116 analyzed using COMSTAT 2.1 was plotted using EstimationStats. With respect to FIGS. 8D and 8F, the biomass on the second step 128h of the step analyzed using COMSTAT 2.1 was plotted using EstimationStats. […]
Pegs 110, 150, 160, 170, 180, 190 were imaged in PBS with an inverted Zeiss LSM 900 (Zeiss, Germany) using a 488 nm laser for excitation and detection wavelengths of […] (green) for GFP and 590-700 nm (red) for identifying autofluorescence. […] Biomass quantification of antibiotic plate images was performed using Comstat2 v2.1 as an ImageJ plugin. […]

The subject of assay [2] is P. aeruginosa PA14 biofilm. The assay can be described thus: antibiotic challenge of biofilm on ziggurat peg lid (modified ASTM E2799-22), OD 600 reading and CFU count after sonication. Type of assay: cell-based, Pseudomonas aeruginosa PA14. The settings on record: peg 110, vs no antibiotic; for reduction in CFU on a per area basis: 24 h challenge; for OD600 mean reduction: biofilm recovered in PBS by sonication. The protocol: The applicability lid having pegs 110 with a ziggurat shape was evaluated to the relevant ATSM standard, E2799-22, modified workflow FIG. 6. Specifically, the pegs 110 were inoculated in a 24-well plate with media at step 300 and incubated at step 304. At step 308, the pegs 110 were then challenged with antibiotics and then incubated again at step 312. At step 316, the pegs were washed or rinsed and, at step 320, placed in PBS for imaging. The pegs 110 were sonicated, at step 324, to remove attached biofilm, which was quantified using OD 600 reading, at step 328, and a CFU count, at step 332. Importantly, the lid 100 could be handled in the same fashion as the commercially available peg lid. The pegs 110 were less rigidly attached to the lid 100 than the commercially available peg lid and could be broken off easily for a biofilm growth check, although due to the ring of biofilm at the air-medium interface typical of wild-type PA14, this could also be verified visually. Due to the design, it was also possible to image in situ. With respect to FIGS. 7A-7D, after imaging, OD 600 and CFU counts were performed to verify no loss of function between the lid 100 optimized for imaging and the commercially available peg lid. Specifically, the raw data and mean difference versus no antibiotics are shown for 100 μg/mL tetracycline, 10 μg/mL tetracycline on an OD 600 basis on the MBEC® Assay (FIG. 7A), the modified plate (FIG. 7B), and on a CFU/mm2 for PA14 (FIG. 7C). […] PA14 was grown on pegs in TSB for 24 hours before recovery. Wells were categorized as “inside” (e.g., those on the dash-dot line) or “outside” (e.g., those on the dashed line) according to the layout in FIG. 9B. The mean differences was plotted using bootstrap sampling distributions and 95% confidence interval is indicated by the ends of the vertical error bars using EstimationStats.
Experiments were conducted using Pseudomonas aeruginosa PA14, which constitutively expressed GFP. Cultures were grown over-night in tryptic soy broth (VWR International, USA) at 37° C. and 150 rpm. 10 μL of the overnight culture was used to inoculate 50 mL of fresh TSB. The growth plate (24 well, VWR International, USA) was prepared by dispensing […] of broth per well, adding the peg lid 100, and incubating for 24 h at 37° C. and 100 rpm. […]
Transfers between media and rinse plates were accomplished by lifting the peg lid 100, allowing excess liquid to drip off, and gently placing the lid 100 in the new plate. […] The efficacy of removal from the surface by sonication as not tested, however the resultant OD600 readings for P. aeruginosabetween this and the MBEC® assay were similar […]

For the compound `CN(C)[C@@H]1C(O)=C(C(N)=O)C(=O)[C@@]2(O)C(O)=C3C(=O)c4c(O)cccc4[C@@](C)(O)[C@H]3C[C@@H]12` [tetracycline], the “streamer midpoint diameter as % of the no antibiotic streamer” value in assay [1] (no antibiotic streamer 309.09±10.43 μm) is 12.96%. Further, the “approximate midpoint diameter of biofilm streamer” value in assay [1] (streamer between surface 128i and step 128h, FIG. 8E) was around 40.05±11.98 μm. Further, in assay [2] (10 μg/mL tetracycline), the “reduction in CFU on a per area basis” value is given as 0 fold and the OD600 mean reduction is on record as 0.02. In assay [2] (100 μg/mL tetracycline), the “reduction in CFU on a per area basis” value came out at 3 fold and the OD600 mean reduction came to 0.03.
